Measurements as given in patent US9969715B2, “Compounds useful for treating cancer” (ABIVAX, priority 2012, dated 2018).

Columns and labels:
[1] = tested on: MDA-MB231-luc-D3H2LN cells; test: Toxicity assay under normal cell culture conditions (MTS), MDA cells; format: cell-based, human; conditions: MDA-MB231-luc-D3H2LN cells, MEM+10% FBS, 72 h incubation, MTS
Procedure: (§1) In order to detect possible toxic effects, all compounds are tested in parallel in a viability assay. The viability assay is performed in parallel on serum-starved cells (as in the invasion assay) vs. cells under normal culture conditions (10% FBS).
(§2) Toxicity Assays (Under Normal Cell Culture Conditions):
(§3) Compounds were prepared as for the invasion assay, and then added to either MDA-MB231-luc-D3H2LN cells (2000/well) under normal culture conditions (MEM+10% FBS), or human PBMC (75000/well, in RPMI+10% FBS+IL-2) in standard 96-well tissue culture plates. After 72 h incubation, a standard MTS assay was performed according to the manufacturer's instructions (Promega Ref. G3581). Compounds were tested at various concentrations (concentration-response curves) in order to determine the concentrations at which 50% toxicity is obtained.

[2] = tested on: MDA-MB231-luc-D3H2LN cells; test: Viability (MTS) assay on the cells in collagen under invasion assay conditions; format: cell-based, human; conditions: loss of viability at the concentration giving 0.5 × effect of 10 μM Y-27632, invasion assay conditions
Procedure: (§4) Viability assay, fixation and staining: Following another 24 h incubation, an MTS assay is performed directly on the cells in the collagen. Then, cells are fixed and nuclei are stained.
as §1
Viability Assay: MTS Assay:
add each 33 μl/well of the MTS reagent, incubate 3-4 h at 37° C./5% CO2
read absorbance at 490 nm (proportional to the viability)
calculate the background-corrected signals by subtracting the means of the background signals in absence of cells from the corresponding signals in presence of cells
normalize the background-corrected signals with respect to the mean signal of the negative controls (no drug) (viabilities are thus expressed in “% of control”)
(§5) Final analysis: Determine the concentration at which a given compound has 50% of the anti-invasive effect of the positive control (10 μM Y-27632). Determine the toxicity (=loss of viability) of the compound under these conditions.

[3] = tested on: MDA-MB231-luc-D3H2LN cells; test: Invasion of MDA-MB231-D3H2LN cells into collagen (example 15 = procedure 2, 48 h drug pre-incubation); format: cell-based; conditions: concentration giving 50% of the anti-invasive effect of 10 μM Y-27632; 48 h pre-incubation, 24 h with 5% FBS; read-out: MDA: Inhib. of invasion: 0.5 × eff. of 10 μM Y-27632 at (μM) av
Procedure: Effect of Drug Compounds on Invasion of MDA-MB231-D3H2LN Cells into Collagen
Preparation of cells at the bottom of a collagen gel: Cells are suspended in a liquid collagen solution (4° C.), distributed into BSA-coated wells, and then collected at the bottom of the wells by centrifugation. The collagen is then solidified by incubation at 37° C. The BSA coating improves the adhesion of the collagen gel.
Pre-treatment with the compounds to be tested: Concentrated drug solutions are then added on top of the collagen, and cells are pre-incubated for 48 h with the drugs at low serum conditions (0.025% FBS).
Stimulation of invasion: Medium with 5% FBS is then added in order to stimulate invasion of the cells into the collagen gel.
as §4
Analysis: Finally, plates are analyzed using an automated microscope. Fluorescent beads that have been included into the BSA coating serve to detect the bottom of the wells. Pictures of the stained nuclei are taken at the same level (0 μm) as well as 25 μm and 50 μm above.
Negative control: No drug (just DMSO at equivalent concentration). Positive control: 10 μM Y-27632. To avoid edge effects, cells are added only to the 60 central wells B2-G11; lines A and H receive only collagen without cells (blank for the MTS assay) columns 1 and 12 remain free. Each drug is tested at least in triplicate. The positive and negative controls should be tested in several triplicates at different positions on each plate. Typical plate map (−=negative control, +=positive control, 1-12=12 different test conditions, i. e. different drug compounds or concentrations):
Preparation of 4× concentrated drug solutions in MEM+0.1% FBS+2% Lutrol E-400+0.8% DMSO: Mix each 620 μl MEM+0.1% FBS+2% Lutrol E-400 with each 4 μl DMSO+each 1 μl of the 50 mM compound stock solutions (yielding […] and 0.8% DMSO). If the desired final compound concentration is <5 μM, then further dilute in MEM+0.1% FBS+0.8% DMSO. Negative control: MEM+0.1% FBS+2% Lutrol E-400+0.8% DMSO without any drug. Preparation of the positive control: Mix 4.5 ml MEM+0.1% FBS+2% Lutrol E-400+[…] with 36 μl 5 mM Y-27632 (freshly thawed aliquot) (yielding 40 μM).
add each 33 μl/well of the 4× concentrated drug solutions in MEM+0.1% FBS+2% Lutrol E-400+0.8% DMSO to the corresponding wells (yields 1× concentrated drugs in MEM+0.025% FBS+0.5% Lutrol E-400+0.2% DMSO final)
incubate 48 h at 37° C./5% CO2
incubate 24 h at 37° C./5% CO2
for each well, calculate the mean invasion distance of the counted cells: (25 μm×number of cells at 25 μm+50 μm×number cells at 50 μm)/sum of cells at 0, 25 and 50 μm
invalidate any replicate with a CV≥50% (compound to be re-tested, or assay to be repeated if CV≥50% for the untreated negative control or the compound Y-27632-treated positive control). Y27632 is a selective inhibitor of the Rho-associated protein kinase p160ROCK of the following formula
validate the assay only if the mean invasion distance of the cells treated with 10 μM Y-27632 (positive control) is decreased by ≥40% as compared to the untreated negative control
as §5
Here, invasion (into collagen) is the concentration of the compound necessary to reach 50% of the inhibition effect compared to 10 μM Y-27632.
Standard operating procedure 2 is exactly the same as the procedure as described in example 15.

human PBMC = test: Toxicity assay under normal cell culture conditions (MTS), PBMC; format: cell-based; conditions: human PBMC, RPMI+10% FBS+IL-2, 72 h incubation, MTS
Procedure: as §2, §3

Structure (SMILES)	MDA tox: 50% tox. at (μM) av [1]	(+ MDA tox. under these cond.) % tox [2]	IC50 [3]	PBMC tox.: 50% tox. at (μM) av (human PBMC)
O=C(NCCCN1CCCC1)c1cccc(Nc2cc(C(=O)Nc3ccncc3)ccn2)c1 [Compound 50, N-(pyridin-4-yl)-2-((3-((3-(pyrrolidin-1-yl)propyl)carbamoyl)phenyl)amino) isonicotinamide]	≥100 µM	<10%	1.88 µM	>100 µM
O=C(Nc1ccncc1)c1cccc(Nc2cccc(S(=O)(=O)NCCN3CCCCC3)c2)c1 [Compound 10, 3-((3-(N-(2-(piperidin-1-yl)ethyl)sulfamoyl)phenyl)amino)-N-(pyridin-4-yl)benzamide]	45 µM	<10%	0.53 µM	29 µM
CN(C(=O)c1cccc(Nc2cccc(C(=O)NCCCN3CCCC3)c2)c1)c1ccncc1 [Compound 18, N-methyl-N-(pyridin-4-yl)-3-((3-((3-(pyrrolidin-1-yl)propyl)carbamoyl)phenyl)amino)benzamide]	>100 µM	<10%	3.45 µM	>100 µM
O=C(NCCCN1CCCCC1)c1cccc(Nc2cccc(C(=O)Nc3ccncc3)c2)c1 [Compound 7, N-(3-(piperidin-1-yl)propyl)-3-((3-(pyridin-4-ylcarbamoyl)phenyl)amino)benzamide]	25 µM	<10%	0.11 µM	38 µM
CN1CCN(CCCNC(=O)c2ccnc(Nc3cc(C(=O)Nc4ccncc4)ccn3)c2)CC1 [Compound 45, N-(3-(4-methylpiperazin-1-yl)propyl)-2-((4-(pyridin-4-ylcarbamoyl)pyridin-2-yl)amino)isonicotinamide]	>100 µM	<10%	0.38 µM	>100 µM
CN1CCN(CCCNC(=O)c2ccnc(Nc3cccc(C(=O)Nc4ccncc4)c3)c2)CC1 [Compound 34]	98 µM	<10%	0.4 µM	>100 µM
CN(C(=O)c1cccc(Nc2cccc(C(=O)NCCCN3CCOCC3)c2)c1)c1ccncc1 [Compound 22, N-methyl-3-((3-((3-morpholinopropyl)carbamoyl)phenyl)amino)-N-(pyridin-4-yl)benzamide]	>100 µM	<10%	2.25 µM	>100 µM
CCN(CC)CCCNC(=O)c1cccc(Nc2cccc(C(=O)N(C)c3ccncc3)c2)n1 [Compound 37, N-(3-(diethylamino)propyl)-6-((3-(methyl(pyridin-4-yl)carbamoyl)phenyl)amino)picolinamide]	>>100 μM	<10%	3.75 µM	>>100 μM
